The data set has as its system Plasma. The data set can be described thus: Half life in human plasma. Type of data set: ADME, cell-free.

In the case of `CC(C)C[C@H](NC(=O)[C@H](Cc1ccccc1)NC(=O)CNC(=O)CNC(=O)[C@@H](N)Cc1ccc(O)cc1)C(=O)O` [ENKEPHALIN], the t1/2 came out at 810 min.
Compound `CC(C)[N+](C)(CCOC(=O)C1c2ccccc2Oc2ccccc21)C(C)C` [PROPANTHELINE] registered a t1/2 of 370 min.

Source of the values: ChEMBL document CHEMBL1821652, “QSAR models for predicting enzymatic hydrolysis of new chemical entities in 'soft-drug' design” (Bioorg Med Chem, 2009).
